Molecules are shown by their SMILES.

The nature of this data set: Log P determined in accordance with OECD Guideline No. 107 for the Testing of Chemicals (water/n-octanol).
[1] abbreviates: Log P (Log P value of the solvent, as measured in accordance with Guideline No. 107), summary table of the examples.
Setting [2] is: Log P determined in accordance with OECD Guideline 107 for the Testing of Chemicals, water/n-octanol 1:1 by weight, 20° C.
[3] abbreviates: log P value, as printed in the abbreviations list.

In the case of `COC(C)(C)C` [MTBE, methyl tert.butyl ether], the logP is, setting by setting: under setting [1], 1.12; under setting [2], 1.12.

With `CCCCCCCCCC(=O)N(C)C` [Decanoic acid dimethyl amide], the logP under setting [1] stood at 2.94, the log partition coefficient (logP) under setting [2] was determined as 2.94 and the logP under setting [3] is 2.94.

On to `CC(=O)CC(C)C` [MIBK, methyl isobutyl ketone], for which the logP is, setting by setting: under setting [1], 1.4; under setting [2], 1.4; under setting [3], 1.31.

The logP is the decadic logarithm of the partition coefficient of the neutral form, usually between octanol and water. High values mean higher lipophilicity, low ones lower lipophilicity.

The record behind these values is patent US20080188688A1, “SOLVENTS FOR PHASE-TRANSFER-CATALYZED REACTIONS” (priority 2007, published 2008).
